Laboratory results: US20250170127A1, “RE-SENSITIZING MULTIDRUG-RESISTANT (MDR) GRAM-NEGATIVE BACTERIA TO COLISTIN USING IONOPHORES” (The Regents of the University of Colorado, a body corporate, priority 2022, published 2025)
Values after ≈ are worked out from the molar mass of the structure shown. Where two headings read alike, the source gives them in different places.

Experiments:
E. coli AR-0493 [1] = assay: Minimum re-sensitizing concentration (MRC) in the presence of colistin; type: cell-based; details: in the presence of 2 μg/mL colistin, E. coli AR-0493
Experimental: These 10 compounds were tested for their MICs and minimum re-sensitizing concentrations (MRCs) in the presence colistin at 2 μg/mL in E. coli AR-0493.
The present inventors further conducted MRC screens of selected compounds from groups 2-5 in AR-0493. Compound were tested against AR-0493 with compound X+2 μg/mL Colistin.
All compounds were tested for their respective minimum resensitizing concentrations (MRCs) for colistin against E. coli. AR0493, a MDR strain from CDC and FDA Antibiotic Resistance Bank. […] For the symmetrical bisanilino series, 7a-p, electron-donating alkyl and alkoxy groups (entries 7a-g, Table 5) at various positions of the phenyl rings were investigated. […] Three asymmetric bisanilino analogs (7q-s, Table 5) were synthesized based on the SARs of the monoanilino analogs 8a-p (vide infra).
(§1) General Methods. MDR strains E. coli AR-0493, AR-0346, and AR-0538, Salmonella Enteritidis AR-0496, Salmonella Typhimurium AR-0635, K. pneumoniae AR-0497, A. baumannii AR-0300 and AR-0310 were all obtained from the CDC & FDA Antibiotic Resistance Isolate Bank. E. coli K-12 was a gift from the Copley lab (Department of MCD Biology, University of Colorado Boulder). HeLa cells were purchased from the ATCC. All bacterial strains were grown on trypticase soy agar supplemented with 5% sheep blood (BAP). Bacteria were then cultured in Luria-Bertani (LB) medium at 35° C. until they achieve the log phase before screening or antimicrobial testing using CAMHB media. MIC, MRC, and checkerboard analyses and mammalian growth inhibition analyses in Hela cells were performed as described previously. More details are given in Supporting information.

E. coli AR-0349 = assay: MICs of a panel of 9 antibiotics with and without compound 3; type: cell-based; details: for INT (S-R interpretation): CLSI 2021, M100, Ed 31; for MIC: antibiotic alone, multidrug-resistant E. coli; for MIC (+3): in the presence of 1 μg/mL of compound 3
E. coli AR-0493 [2] = assay: MIC, CLSI broth microdilution, substance alone; type: cell-based
Experimental: A MDR E. coli strain AR-0493 (a.k.a., ATCC BAA-3170) was obtained from the CDC and FDA Antibiotic Resistance Bank and used for the initial screen. […] Considering the difficulties on the discovery of novel antimicrobial reagents against Gram-negative bacteria, we chose to screen the fragment-based library of 3,200 compounds from TimTec (Tampa, FL). […] The screen used a modified broth microdilution assay.
These 10 compounds were tested for their MICs and minimum re-sensitizing concentrations (MRCs) in the presence colistin at 2 μg/mL in E. coli AR-0493. […] To evaluate their toxicity in mammalian cells, the present inventors treated human epithelial adenocarcinoma HeLa cells with each compound at a wide range of concentrations. […]
as §1

HeLa cells = assay: in vitro; type: cell-based, human
Experimental: These 10 compounds were tested for their MICs and minimum re-sensitizing concentrations (MRCs) in the presence colistin at 2 μg/mL in E. coli AR-0493. […] To evaluate their toxicity in mammalian cells, the present inventors treated human epithelial adenocarcinoma HeLa cells with each compound at a wide range of concentrations.
To evaluate the mammalian toxicity of these analogs, Applicants tested them in cell viability assay using human cervical adenocarcinoma HeLa cells. Their respective half maximal growth inhibition concentration (GI50) was calculated using KaleidaGraph. The selectivity index (SI) for each compound was also calculated as the ratio of their GI50 and MRC. […] Therefore, Applicants selected two bisanilino analogs, 7l and 7m, that bear chlorines at the meta- and para-positions, respectively, of the phenyl groups for further characterization studies. […]. […] Their mammalian toxicities were also evaluated, and SIs calculated. […] Applicants we next explored the scope of analogs 71 and 7m their colistin-potentiating activity in 8 different MDR Gram negative bacteria with diverse genetic backgrounds and resistance mechanisms (Table 7). All strains were obtained from CDC and FDA Antibiotic Resistance Bank. For example, E. coli AR-0493 and K. pneumoniae AR-0497 carry the plasmid that contains the most prevalent mcr-1 gene. E. coli AR-0538, Salmonella Typhimurium AR-0539 and AR-0635 contain the mcr-2, 3, and 4 genes, respectively. These genes encode the phosphoethanolamine transferase, which was originated form the chromosome of A. baumannii, such as AR-0310. […]. A. baumannii AR-0310 appears more sensitive to these two compounds and the MICs of colistin was reduced to 0.25 μg/mL.
as §1

[3] = Escherichia coli, AR0349, read-out: MIC

COc1ccc(Nc2nc3nonc3nc2Nc2ccc(OC)cc2)cc1 [Compound 7g]
MRC (minimum re-sensitizing concentration) (E. coli AR-0493 [1]): >64 µg/mL

Gentamicin
INT (S-R interpretation) (E. coli AR-0349): S
MIC (E. coli AR-0349): 0.5 µg/mL
MIC (+3) (E. coli AR-0349): 0.5 µg/mL

Oc1nc2nonc2nc1Nc1cccc(Cl)c1 [Compound 8l]
MRC (minimum re-sensitizing concentration) (E. coli AR-0493 [1]): 16 µg/mL

O=C(O)c1cn(C2CC2)c2cc(N3CCNCC3)c(F)cc2c1=O [Ciprofloxacin]
MIC (E. coli AR-0349; [3]): 32 µg/mL (≈ 96.6 µM)
MIC (+3) (E. coli AR-0349): 32 µg/mL

Polymyxin B
INT (S-R interpretation) (E. coli AR-0349): R
MIC (E. coli AR-0349): 16 µg/mL
fold of potentiation (E. coli AR-0349; by 1 μg/mL of compound 3): 16 fold
MIC (+3) (E. coli AR-0349): 1 µg/mL

Oc1nc2nonc2nc1Nc1ccc(Cl)cc1 [Compound 8m]
MRC (minimum re-sensitizing concentration) (E. coli AR-0493 [1]): 32 µg/mL

COc1ccccc1Nc1nc2nonc2nc1Nc1ccccc1OC [Compound 7e]
MRC (minimum re-sensitizing concentration) (E. coli AR-0493 [1]): >64 µg/mL

CO[C@H]1/C=C/O[C@@]2(C)Oc3c(C)c(O)c4c(O)c(c(/C=N/N5CCN(C)CC5)c(O)c4c3C2=O)NC(=O)/C(C)=C\C=C\[C@H](C)[C@H](O)[C@@H](C)[C@@H](O)[C@@H](C)[C@H](OC(C)=O)[C@@H]1C [Rifampicin]
INT (S-R interpretation) (E. coli AR-0349): R
MIC (E. coli AR-0349; [3]): 16 µg/mL (≈ 19.4 µM)
MIC (+3) (E. coli AR-0349): 16 µg/mL

Oc1nc2nonc2nc1Nc1ccccc1OC(F)(F)F [Compound 8n]
MRC (minimum re-sensitizing concentration) (E. coli AR-0493 [1]): >64 µg/mL

Clc1ccccc1Nc1nc2nonc2nc1Nc1ccccc1Cl [Compound 7k]
MRC (minimum re-sensitizing concentration) (E. coli AR-0493 [1]): 8 µg/mL

CC[C@H]1OC(=O)[C@H](C)[C@@H](O[C@H]2C[C@@](C)(OC)[C@@H](O)[C@H](C)O2)[C@H](C)[C@@H](O[C@@H]2O[C@H](C)C[C@H](N(C)C)[C@H]2O)[C@](C)(O)C[C@@H](C)CN(C)[C@H](C)[C@@H](O)[C@]1(C)O [Azithromycin]
INT (S-R interpretation) (E. coli AR-0349): R
MIC (E. coli AR-0349; [3]): > 64 µg/mL
MIC (+3) (E. coli AR-0349): >64 µg/mL

Oc1nc2nonc2nc1Nc1ccccc1Cl [Compound 8k]
MRC (minimum re-sensitizing concentration) (E. coli AR-0493 [1]): 16 µg/mL

Cc1ccc(Nc2nc3nonc3nc2O)cc1 [Compound 8d]
MRC (minimum re-sensitizing concentration) (E. coli AR-0493 [1]): 64 µg/mL

FC(F)(F)Oc1cccc(Nc2nc3nonc3nc2Nc2cccc(OC(F)(F)F)c2)c1 [Compound 7o]
MIC (E. coli AR-0493 [2]): >64 µg/mL
MRC (minimum re-sensitizing concentration) (E. coli AR-0493 [1]): 0.25 µg/mL
MRC (minimum re-sensitizing concentration) (E. coli AR-0493 [1]; listed as 57o): 0.25 µg/mL
GI50 (HeLa cells): 43 µg/mL

Fc1cccc(Nc2nc3nonc3nc2Nc2cccc(F)c2)c1 [Compound 7i]
MIC (E. coli AR-0493 [2]): >64 µg/mL
MRC (minimum re-sensitizing concentration) (E. coli AR-0493 [1]): 0.5 µg/mL
GI50 (HeLa cells): 20 µg/mL

Oc1nc2nonc2nc1Nc1ccc(F)cc1 [Compound 8j]
MRC (minimum re-sensitizing concentration) (E. coli AR-0493 [1]): 32 µg/mL

Cc1ccccc1Nc1nc2nonc2nc1Nc1ccccc1C [Compound 7b]
MRC (minimum re-sensitizing concentration) (E. coli AR-0493 [1]): 8 µg/mL

c1ccc(Nc2nc3nonc3nc2Nc2ccccc2)cc1 [Compound 7a]
MIC (E. coli AR-0493 [2]): >64 µg/mL
MRC (minimum re-sensitizing concentration) (E. coli AR-0493 [1]): 0.5 µg/mL
GI50 (HeLa cells): 4.4 µg/mL

Cc1cccc(Nc2nc3nonc3nc2O)c1 [Compound 8c]
MRC (minimum re-sensitizing concentration) (E. coli AR-0493 [1]; listed as 8c (2)): 8 µg/mL

Cc1cccc(Nc2nc3nonc3nc2Nc2cccc(OC(F)(F)F)c2)c1 [Compound 7r]
MIC (E. coli AR-0493 [2]): >64 µg/mL
MRC (minimum re-sensitizing concentration) (E. coli AR-0493 [1]): 0.5 µg/mL
GI50 (HeLa cells): 12 µg/mL
